Among the data in ChEMBL document CHEMBL1158675, “A bioactive secosterol with an unusual A- and B-ring oxygenation pattern isolated from an Indonesian soft coral Lobophytum sp” (J Nat Prod, 1998) are IC50 values, retold here.

One test deals with K562. Kind of test: Cytotoxicity against human K562 cells. Format: functional, cell-based.
The test system of a further test is A2780. Kind of test: Cytotoxicity against human A2780 cells. Format: functional, cell-based.

The term IC50 denotes the midpoint of a concentration-inhibition curve. Low values mean greater potency, high ones weaker potency.

Take `CC(C)[C@@H](C)[C@@]1(C)C[C@@H]1[C@@H](C)[C@H]1CC[C@@H]([C@H]2C(=O)[C@@]3(C)CC[C@H](O)C[C@@]34O[C@H]4[C@@H]2O)[C@]1(C)CCO`: the values for the IC50 in the test on K562 and with A2780 were 7.1 µM and 6.3 µM, respectively.
